# ± gives the standard deviation of the averaged measurements.
# Legend:
# Assay in all cases: maximal % inhibition of viability relative to DMSO; higher = stronger effect
# Conditions in all cases: treatment time: 3 days
# UT-SCC-44 = system: UT-SCC-44
# Method: (§1)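 HNSCC cell lines (500 cells/well, 384-well) were cultured on plastic, on top of (2D) or embedded (3D) in Matrigel or human leiomyoma matrix Myogel (500 ug/mL; Myogel 3D mixed with rat collagen I). Cells were treated for 3 days with 5 ten-fold concentrations of each drug, and viability was read by CellTiter-Glo. Viability was normalised to DMSO and benzethonium chloride controls and fitted with the FIMM DSRT pipeline to give IC50 (nM), maximal % inhibition and DSS. Suffixes _1/_2/_3 are replicates. Only inhibition-mode (IC50) fits are kept.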
# UT-SCC-73 = system: UT-SCC-73
# Method: as §1
# UT-SCC-81 = system: UT-SCC-81
# Method: as §1
# UT-SCC-42B = system: UT-SCC-42B
# Method: as §1
# UT-SCC-42A = system: UT-SCC-42A
# Method: as §1
# UT-SCC-8 = system: UT-SCC-8
# Method: as §1
# UT-SCC-28 = system: UT-SCC-28
# Method: as §1
# UT-SCC-14 = system: UT-SCC-14
# Method: as §1
# UT-SCC-106A = system: UT-SCC-106A
# Method: as §1
# UT-SCC-24B = system: UT-SCC-24B
# Method: as §1
# [1] = culture condition: embedded in Matrigel
# [2] = culture condition: embedded in Myogel + collagen I
# [3] = culture condition: on top of Matrigel
# [4] = culture condition: on top of Myogel
# [5] = culture condition: plastic 2D (no matrix)
compound,measurement,setting,value
CN(C)C/C=C/C(=O)Nc1cc2c(Nc3ccc(F)c(Cl)c3)ncnc2cc1O[C@H]1CCOC1 [Afatinib],maximal % inhibition of viability,UT-SCC-44; [1],7.03 ± 6.5%
same,maximal % inhibition of viability,UT-SCC-44; [2],1 ± 1.7%
same,maximal % inhibition of viability,UT-SCC-44; [3],9.97 ± 9.3%
same,maximal % inhibition of viability,UT-SCC-44; [4],9.63 ± 7.3%
same,maximal % inhibition of viability,UT-SCC-44; [5],4.6 ± 5.6%
same,maximal % inhibition of viability,UT-SCC-73; [1],20.2 ± 7.8%
same,maximal % inhibition of viability,UT-SCC-73; [2],25.6 ± 22%
same,maximal % inhibition of viability,UT-SCC-73; [3],17.1 ± 3.4%
same,maximal % inhibition of viability,UT-SCC-73; [4],11.5 ± 7.3%
same,maximal % inhibition of viability,UT-SCC-73; [5],16.7 ± 4.8%
same,maximal % inhibition of viability,UT-SCC-81; [1],88.3 ± 2.3%
same,maximal % inhibition of viability,UT-SCC-81; [2],33.4 ± 37%
same,maximal % inhibition of viability,UT-SCC-81; [3],83.3 ± 2.2%
same,maximal % inhibition of viability,UT-SCC-81; [4],23 ± 7.8%
same,maximal % inhibition of viability,UT-SCC-81; [5],71.2 ± 5%
same,maximal % inhibition of viability,UT-SCC-42B; [1],73.7 ± 4.9%
same,maximal % inhibition of viability,UT-SCC-42B; [3],54.4 ± 3.4%
same,maximal % inhibition of viability,UT-SCC-42B; [4],9.53 ± 0.45%
same,maximal % inhibition of viability,UT-SCC-42B; [5],37.8 ± 4.5%
same,maximal % inhibition of viability,UT-SCC-42A; [1],51.6 ± 4%
same,maximal % inhibition of viability,UT-SCC-42A; [2],13.4 ± 9.6%
same,maximal % inhibition of viability,UT-SCC-42A; [3],54 ± 2.1%
same,maximal % inhibition of viability,UT-SCC-42A; [4],26.6 ± 1.1%
same,maximal % inhibition of viability,UT-SCC-42A; [5],50.7 ± 2.2%
same,maximal % inhibition of viability,UT-SCC-8; [1],96.67 ± 0.42%
same,maximal % inhibition of viability,UT-SCC-8; [2],22.4 ± 19%
same,maximal % inhibition of viability,UT-SCC-8; [3],94.3 ± 0.36%
same,maximal % inhibition of viability,UT-SCC-8; [4],45.4 ± 12%
same,maximal % inhibition of viability,UT-SCC-8; [5],90.7 ± 1.6%
same,maximal % inhibition of viability,UT-SCC-28; [1],3.87 ± 5.3%
same,maximal % inhibition of viability,UT-SCC-28; [2],14.7 ± 6.2%
same,maximal % inhibition of viability,UT-SCC-28; [3],12 ± 4%
same,maximal % inhibition of viability,UT-SCC-28; [5],8.87 ± 2.8%
same,maximal % inhibition of viability,UT-SCC-14; [1],74.9 ± 5.2%
same,maximal % inhibition of viability,UT-SCC-14; [2],44.3 ± 12%
same,maximal % inhibition of viability,UT-SCC-14; [3],74.6 ± 7.7%
same,maximal % inhibition of viability,UT-SCC-14; [4],47.3 ± 16%
same,maximal % inhibition of viability,UT-SCC-14; [5],71.4 ± 10%
same,maximal % inhibition of viability,UT-SCC-106A; [1],43.3 ± 3.5%
same,maximal % inhibition of viability,UT-SCC-106A; [2],7.93 ± 2.1%
same,maximal % inhibition of viability,UT-SCC-106A; [3],56.6 ± 1.3%
same,maximal % inhibition of viability,UT-SCC-106A; [4],8.37 ± 4.6%
same,maximal % inhibition of viability,UT-SCC-106A; [5],60.4 ± 4.3%
same,maximal % inhibition of viability,UT-SCC-24B; [1],63.2 ± 3%
same,maximal % inhibition of viability,UT-SCC-24B; [2],37.8 ± 14%
same,maximal % inhibition of viability,UT-SCC-24B; [3],56.5 ± 1.6%
same,maximal % inhibition of viability,UT-SCC-24B; [4],21.4 ± 3.8%
same,maximal % inhibition of viability,UT-SCC-24B; [5],71.4 ± 3.5%

# — the supplement of paper PMC7017272
